Test results published in patent EP2135864A1, “5-(4-methanesulfonyl-phenyl)-thiazole derivatives for the treatment of acute and chronic inflammatory diseases” (FAES FARMA, S.A., priority 2008, dated 2009).

Key:
Assay type in all cases: cell-based, human
IL-8 = IL-8 production by PBMC from healthy volunteers, CBA; details: 24 hours, mean ± standard error, n=13
Experimental: (§1) CBA protocol was followed according to the manufacturer's instructions. The election of microparticles was performed following the summary of Figure 1.
(§2) The acquisition on samples was performed with the BD FACS Array Bioanalyser System (FACSArray, Becton Dickinson, San José, CA, USA) and the analysis of the results was completed with the software FCAP Array (Becton Dickinson) in a PC computer.
(§3) Briefly, the experimental protocol consisted of a plate pre-washing out with Wash Buffer. After decantation, the mixture of capture microparticles was re-suspended in the vortex. Standards and samples were added in the adequate dilution. After permanent stirring incubation during 1 h, the PE detection reagent was added and incubated again during 2h at room temperature. After a washing-out, the acquisition was performed in the flow cytometer. Table 3. -Kit CBA Human Soluble Protein Multiplex Flex Set System.
The effect of compound 12 on the IL-8 production by the PBMC from healthy volunteers was further investigated, both in the presence and absence of LPS stimuli and monoclonal antibodies anti-CD3 and anti-CD28. PBMC (5 x 10^4 cells/well) from 13 healthy volunteers were cultured in duplicate in 200 µl of complete medium supplemented with the highest solvent concentration (10^-6 M), and 10^-6 M, 10^-7 M and 10^-8 M of compound 12, in the presence and absence of either LPS (10 µg/ml) or anti-CD3 (12.5 ng/ml) + anti-CD28 (1/3x10^5), during 24 hours. Culture supernatants were frozen at -20°C and IL-8 concentration was quantified by BD FACS Array Bioanalyser by using CBA Flex Set, specific to determine the IL-8 concentration, following the manufacturer instructions.

TNF-alpha [1] = test: TNF-alpha production by PBMC from healthy volunteers, Cytometric Bead Array (CBA); details: 24 hours, mean ± standard error, n=13
Experimental: as §1, §2, §3
PBMC (5 x 10^4 cells/well) from 13 healthy volunteers were cultured in duplicate in 200 µl of complete medium supplemented with the highest solvent concentration (10^-6 M), […] the absence of LPS (10µg/ml) during 24 hours. Supernatant of cultures were frozen at -20°C and quantification was carried out by BD FACS Array Bioanayliser (BD Biosciences Cat No. 340128, San Diego CA 92121) by using specific reagents for the simultaneous assay of the indicated cytokines concentration (CBA Flex Multiplex Set (BD™ Cytometric Bead Array, CBA: IL-8, IL-10, TNF-alpha and IFN-gamma Becton Dickinson Biosciences Pharmingen, San Diego CA 92121).

TNF-alpha [2] = test: TNF-alpha production by PBMC from patients with rheumatoid arthritis, CBA; details: 24 hours, mean ± standard error, n=7
Experimental: as §1, §2, §3
In another experiment, PBMC (5 x 10^4 cells per well) from 7 patients with rheumatoid arthritis were cultured in duplicate in 200 µl of complete medium supplemented with the highest solvent (10^-6 M), and 10^-6 M, 10^-7 M and 10^-8 M compound 12 and in the presence and absence of either LPS (10 µg/ml), or anti-CD3 (12.5ng/ml) (Orthoclone OKT3, Ortho Pharmaceutical Corporation, Raritan NJ, USA) + anti-CD28 (1/3x10^5) (Clon 15E8, Menarini, Madrid, Spain), during 24 hours. Culture supernatants were frozen at -20°C and the concentration of TNF-alpha quantified by BD FACS Array Bioanalyser by using CBA Flex Set (Becton Dickinson), specific for determining the concentration of that cytokine, following the manufacturer instructions.

CD62L = test: Shedding of CD62L in lymphocytes of PBMC, flow cytometry; details: lymphocytes of PBMC from healthy volunteers, mean ± standard error, n=10, vehicle 112.68±13.57
Experimental: Direct immuno-fluorescence techniques of one colour with monoclonal antibodies phycoerythrin-labeled (PE) was used. PE is a fluorescent substance excitable with a 488 nm laser, which emits at 570 nm, and it is detectable and easily distinguishable by a flow cytometer. By using the antibody described in Table 1, a direct labelling was performed: PBMC labelling: the process consisted in a labelling using 96 well V bottom plates. In each well, 5 x 10^4 cells are located, and afterwards centrifugated at 400 xg during 5 minutes. After washing-out, cells are re-suspended and 5 µl of the corresponding monoclonal antibody are added. Cells are again re-suspended and the plate is incubated in darkness, during 20 minutes, at 4°C. Subsequently, 150 µl PBS are added and two wash-outs are performed. Finally, it is re-suspended in 150 µl PBS and collected in a cytometer tube, adding PBS up to a final volume of 0.3 ml. For the counting, a FACSCalibur flow cytometer equipped with argon laser tuned at 488 nm was used in order to induce phycoerythrin fluorescence. The equipment, apart from the fluorescence channels, also provided information about the size (FSC) and cellular complexity (SSC). […]
Table 14. -Mean fluorescence intensity of surface CD62L expression in lymphocytes. p values correspond to data with respect to the vehicle for each experimental condition.

Cc1nc(OC2CCCC2)c(-c2ccc(S(C)(=O)=O)cc2)s1 [compound 12, 4-cyclopentyloxy-5-(4-methylsulfonyl-phenyl)-2-methylthiazole]
IL-8 production by PMBC from healthy volunteers (IL-8; LPS (10µg/ml), 10^-6 M, vehicle 173877.36±8474.49, p 0.807): 168467.15±9656.96 (0.807) pg/mL | IL-8 production by PMBC from healthy volunteers (IL-8; LPS (10µg/ml), 10^-7 M, vehicle 173877.36±8474.49, p 0.249): 162075.59±10258.41 (0.249) pg/mL | IL-8 production by PMBC from healthy volunteers (IL-8; LPS (10µg/ml), 10^-8 M, vehicle 173877.36±8474.49, p 0.861): 169609.11±9060.90 (0.861) pg/mL | IL-8 production by PMBC from healthy volunteers (IL-8; anti-CD3 (12.5 ng/ml) + anti-CD28 (1/3x10^5), 10^-6 M, vehicle 107008.56±8351.21, p 0.311): 99779.72±20000 (0.311) pg/mL | IL-8 production by PMBC from healthy volunteers (IL-8; anti-CD3 (12.5 ng/ml) + anti-CD28 (1/3x10^5), 10^-7 M, vehicle 107008.56±8351.21, p 0.055): 97968.61±10220.21 (0.055) pg/mL | IL-8 production by PMBC from healthy volunteers (IL-8; anti-CD3 (12.5 ng/ml) + anti-CD28 (1/3x10^5), 10^-8 M, vehicle 107008.56±8351.21, p 0.028): 92989.29±8463.47 (0.028) pg/mL | IL-8 production by PMBC from healthy volunteers (IL-8; medium, 10^-6 M, vehicle 72814.17±10647.16, p 0.016): 45634.31±6311.13 (0.016) pg/mL | IL-8 production by PMBC from healthy volunteers (IL-8; medium, 10^-7 M, vehicle 72814.17±10647.16, p 0.006): 53732.66±7952.75 (0.006) pg/mL | IL-8 production by PMBC from healthy volunteers (IL-8; medium, 10^-8 M, vehicle 72814.17±10647.16, p 0.087): 57773.60±6667.57 (0.087) pg/mL | TNF-alpha production in PMBC from healthy volunteers (TNF-alpha [1]; LPS (10µg/ml), 10^-6 M, vehicle 923.93±160.00, p 0.002): 602.12±100.00 (0.002) pg/mL | TNF-alpha production in PMBC from healthy volunteers (TNF-alpha [1]; LPS (10µg/ml), 10^-7 M, vehicle 923.93±160.00, p 0.046): 746.84±125.00 (0.046) pg/mL | TNF-alpha production in PMBC from healthy volunteers (TNF-alpha [1]; LPS (10µg/ml), 10^-8 M, vehicle 923.93±160.00, p 0.055): 738.81±100.00 (0.055) pg/mL | TNF-alpha production in PMBC from healthy volunteers (TNF-alpha [1]; anti-CD3 (12.5 ng/ml) + anti-CD28 (1/3x10^5), 10^-6 M, vehicle 435.81±60.00, p 0.116): 334.21±63.00 (0.116) pg/mL | TNF-alpha production in PMBC from healthy volunteers (TNF-alpha [1]; anti-CD3 (12.5 ng/ml) + anti-CD28 (1/3x10^5), 10^-7 M, vehicle 435.81±60.00, p 0.753): 404.11±97.00 (0.753) pg/mL | TNF-alpha production in PMBC from healthy volunteers (TNF-alpha [1]; anti-CD3 (12.5 ng/ml) + anti-CD28 (1/3x10^5), 10^-8 M, vehicle 435.81±60.00, p 0.422): 355.62±65.00 (0.422) pg/mL | TNF-alpha production in PMBC from healthy volunteers (TNF-alpha [1]; medium, 10^-6 M, vehicle 163.84±30.00, p 0.422): 148.31±50.00 (0.422) pg/mL | TNF-alpha production in PMBC from healthy volunteers (TNF-alpha [1]; medium, 10^-7 M, vehicle 163.84±30.00, p 0.249): 197.81±40.00 (0.249) pg/mL | TNF-alpha production in PMBC from healthy volunteers (TNF-alpha [1]; medium, 10^-8 M, vehicle 163.84±30.00, p 0.65): 168.49±16.00 (0.65) pg/mL | TNF-alpha production in PMBC from patients with rheumatoid arthritis (TNF-alpha [2]; LPS (10µg/ml), 10^-6 M, vehicle 700.39±180.00, p 0.05): 383.75±75.00 (0.05) pg/ml | TNF-alpha production in PMBC from patients with rheumatoid arthritis (TNF-alpha [2]; LPS (10µg/ml), 10^-7 M, vehicle 700.39±180.00, p 0.237): 626.57±150.00 (0.237) pg/ml | TNF-alpha production in PMBC from patients with rheumatoid arthritis (TNF-alpha [2]; LPS (10µg/ml), 10^-8 M, vehicle 700.39±180.00, p 0.499): 683.40±120.00 (0.499) pg/ml | TNF-alpha production in PMBC from patients with rheumatoid arthritis (TNF-alpha [2]; anti-CD3 (12.5 ng/ml) + anti-CD28 (1/3x10^5), 10^-6 M, vehicle 648.72±90.00, p 0.31): 532.07±80.00 (0.31) pg/ml | TNF-alpha production in PMBC from patients with rheumatoid arthritis (TNF-alpha [2]; anti-CD3 (12.5 ng/ml) + anti-CD28 (1/3x10^5), 10^-7 M, vehicle 648.72±90.00, p 0.612): 568.47±97.00 (0.612) pg/ml | TNF-alpha production in PMBC from patients with rheumatoid arthritis (TNF-alpha [2]; anti-CD3 (12.5 ng/ml) + anti-CD28 (1/3x10^5), 10^-8 M, vehicle 648.72±90.00, p 0.398): 695.81±79.00 (0.398) pg/ml | TNF-alpha production in PMBC from patients with rheumatoid arthritis (TNF-alpha [2]; medium, 10^-6 M, vehicle 100.64±40.00, p 0.735): 177.32±95.00 (0.735) pg/ml | TNF-alpha production in PMBC from patients with rheumatoid arthritis (TNF-alpha [2]; medium, 10^-7 M, vehicle 100.64±40.00, p 0.735): 191.33±80.00 (0.735) pg/ml | TNF-alpha production in PMBC from patients with rheumatoid arthritis (TNF-alpha [2]; medium, 10^-8 M, vehicle 100.64±40.00, p 0.735): 131.95±85.00 (0.735) pg/ml | Mean fluorescence intensity of surface CD62L expression in lymphocytes (MFI) (CD62L; 10^-6 M, p 0.47 as printed): 90.01±8.93 (0.47) | Mean fluorescence intensity of surface CD62L expression in lymphocytes (MFI) (CD62L; 10^-7 M, p 0.333): 116.90±11.02 (0.333)
